# According to patent US20260060973A1, “Ophthalmic Composition for Treating Non-Infectious Inflammatory Diseases” (VIVAVISION BIOTECH LTD., priority 2023, published 2026):
# Entries after “also recorded” stand apart in the source; their conditions may differ.
# Legend:
# Solubility in water = type: physicochemical
# Janus kinase 1 (JAK1) = Janus kinase 1 (JAK1) (Homo sapiens, UniProt P23458); assay: Mechanism of action of VVN461; type: biochemical
# Description: (§1) JAK- or TYK-dependent cytokines are associated with non-infectious inflammatory diseases (e.g., uveitis or other ocular diseases), which is a potential therapeutic target for immune-mediated uveitis. VVN461 can target both Janus kinase 1 (JAK1) and tyrosine kinase 2 (TYK2), target JAK/TYK-dependent cytokines, and inhibit Janus kinase (JAK)/signal transducer and activation of transcription (STAT) pathway, and thus can be used for the treatment of non-infectious inflammatory diseases such as uveitis. […] These phosphorylated receptor residues that act as binding sites for STAT proteins are activated by the phosphorylation of the JAKs, so that STAT proteins are dimerized and translocated to the nucleus of the cell, thereby bind to specific DNA sites and regulate gene expression, which in turn leads to inflammation. In contrast, VVN461 of the present application can target JAK/TYK-dependent cytokines and inhibit the JAK/STAT pathway, and thus can be used for the treatment of non-infectious inflammatory diseases such as uveitis.
# tyrosine kinase 2 (TYK2) = tyrosine kinase 2 (TYK2) (Homo sapiens, UniProt P29597); assay: Mechanism of action of VVN461; type: biochemical
# tyrosine kinase 2 (TYK2), sequence (P29597 whole entry, species assumed): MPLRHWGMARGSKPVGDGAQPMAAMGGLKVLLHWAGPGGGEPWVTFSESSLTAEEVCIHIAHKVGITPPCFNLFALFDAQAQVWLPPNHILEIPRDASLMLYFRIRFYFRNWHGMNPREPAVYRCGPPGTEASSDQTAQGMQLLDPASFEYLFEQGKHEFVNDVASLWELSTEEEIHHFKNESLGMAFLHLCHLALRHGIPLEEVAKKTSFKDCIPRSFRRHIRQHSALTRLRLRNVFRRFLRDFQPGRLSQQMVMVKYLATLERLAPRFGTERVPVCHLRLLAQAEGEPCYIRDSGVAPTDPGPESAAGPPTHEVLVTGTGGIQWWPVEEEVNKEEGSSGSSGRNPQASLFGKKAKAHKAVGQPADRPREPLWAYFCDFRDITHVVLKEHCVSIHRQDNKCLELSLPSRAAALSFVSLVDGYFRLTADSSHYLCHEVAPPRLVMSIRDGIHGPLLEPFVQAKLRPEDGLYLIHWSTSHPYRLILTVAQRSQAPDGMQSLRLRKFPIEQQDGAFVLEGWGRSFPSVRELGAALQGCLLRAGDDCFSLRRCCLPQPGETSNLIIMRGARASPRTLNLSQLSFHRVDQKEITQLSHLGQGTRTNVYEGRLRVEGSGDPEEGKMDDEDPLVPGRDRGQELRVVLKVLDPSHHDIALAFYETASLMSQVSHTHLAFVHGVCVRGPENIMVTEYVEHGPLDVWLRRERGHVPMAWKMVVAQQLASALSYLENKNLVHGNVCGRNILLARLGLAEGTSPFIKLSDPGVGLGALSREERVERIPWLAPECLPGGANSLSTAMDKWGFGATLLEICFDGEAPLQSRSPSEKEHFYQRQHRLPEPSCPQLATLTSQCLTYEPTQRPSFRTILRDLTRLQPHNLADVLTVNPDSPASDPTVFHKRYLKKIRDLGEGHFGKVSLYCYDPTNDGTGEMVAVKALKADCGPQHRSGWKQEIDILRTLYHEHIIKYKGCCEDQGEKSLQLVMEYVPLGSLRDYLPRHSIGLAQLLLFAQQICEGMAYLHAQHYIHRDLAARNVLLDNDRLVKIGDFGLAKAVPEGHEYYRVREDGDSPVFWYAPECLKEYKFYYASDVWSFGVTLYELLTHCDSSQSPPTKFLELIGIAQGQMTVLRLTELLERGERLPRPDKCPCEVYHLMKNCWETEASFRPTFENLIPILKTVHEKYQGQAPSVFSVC
# Description: as §1
# Janus kinase 1 (JAK1), sequence (P23458 whole entry, species assumed): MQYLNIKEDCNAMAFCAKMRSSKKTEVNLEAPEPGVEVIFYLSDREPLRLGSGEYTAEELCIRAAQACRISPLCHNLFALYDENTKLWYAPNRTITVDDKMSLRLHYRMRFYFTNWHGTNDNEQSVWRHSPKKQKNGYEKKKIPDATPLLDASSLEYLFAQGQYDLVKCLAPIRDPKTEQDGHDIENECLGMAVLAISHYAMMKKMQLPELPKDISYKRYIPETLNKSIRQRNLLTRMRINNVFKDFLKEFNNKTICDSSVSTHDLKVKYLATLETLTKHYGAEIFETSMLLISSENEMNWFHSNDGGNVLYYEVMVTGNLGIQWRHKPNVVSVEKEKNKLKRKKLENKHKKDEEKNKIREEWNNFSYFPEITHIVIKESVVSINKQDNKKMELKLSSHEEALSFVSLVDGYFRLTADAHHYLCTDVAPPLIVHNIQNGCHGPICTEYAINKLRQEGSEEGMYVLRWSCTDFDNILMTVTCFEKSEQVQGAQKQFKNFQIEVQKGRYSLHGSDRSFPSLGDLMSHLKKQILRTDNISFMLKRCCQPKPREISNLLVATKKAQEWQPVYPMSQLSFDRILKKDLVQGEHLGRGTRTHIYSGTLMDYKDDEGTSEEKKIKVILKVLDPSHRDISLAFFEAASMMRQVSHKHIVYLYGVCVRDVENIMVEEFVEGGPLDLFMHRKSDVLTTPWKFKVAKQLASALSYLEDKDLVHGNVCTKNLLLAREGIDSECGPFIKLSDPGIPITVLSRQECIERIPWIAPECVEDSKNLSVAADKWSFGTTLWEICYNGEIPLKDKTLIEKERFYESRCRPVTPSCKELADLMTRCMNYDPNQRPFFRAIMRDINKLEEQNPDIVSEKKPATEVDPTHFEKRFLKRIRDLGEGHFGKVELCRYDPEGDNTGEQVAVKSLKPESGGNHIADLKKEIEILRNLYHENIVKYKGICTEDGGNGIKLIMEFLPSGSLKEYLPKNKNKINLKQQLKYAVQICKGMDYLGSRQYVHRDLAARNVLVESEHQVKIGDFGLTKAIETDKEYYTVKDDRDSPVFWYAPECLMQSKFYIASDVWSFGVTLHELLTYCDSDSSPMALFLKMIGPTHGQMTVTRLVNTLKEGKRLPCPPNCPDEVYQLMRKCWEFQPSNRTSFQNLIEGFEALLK
structure (smiles),measurement,setting,value
"C[C@@H](O)c1nc2cnc3[nH]ccc3c2n1N1CCC(CC#N)CC1 [VVN461, (R)-2-(1-(2-(1-hydroxyethyl)imidazo[4,5-d]pyrrolo[2,3-b]pyridin-1(6H)-yl)piperidin-4-yl)acetonitrile]",solubility,Solubility in water,practically insoluble in water; also recorded: low water solubilities
same,JAK1 inhibition,Janus kinase 1 (JAK1),dual JAK1/TYK2 inhibitor
same,TYK2 inhibition,tyrosine kinase 2 (TYK2),dual JAK1/TYK2 inhibitor
